A short description of the series: gradient 5% acetonitrile 3 min, to 50% in 2 min, to 85% in 15 min, held 3 min, 100 µL/min. The following applies: column: Zorbax Extend-C18 2.1 x 50 mm; eluents: water / acetonitrile, 0.1% formic acid. A digest of the protocol: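 Each retention time is based on an adduct peak selected computationally and verified by manual inspection. Measurements used HPLC–quadrupole time-of-flight mass spectrometry in positive and negative ionization mode on mixtures of ~100 pure standards. Chromatography ran on a Zorbax Extend-C18 column (2.1 × 50 mm, 1.8 μm) at 100 μL/min with water and acetonitrile, each containing 0.1% formic acid, and dead and dwell volumes of 40 μL and 900 μL.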
In the case of `Cn1c(=O)sc2cc(S(=O)(=O)N3CCC(C(=O)Nc4ccccc4)CC3)ccc21`, the RP-LC retention time is 835 s.

As to `COc1ccc(C)cc1NC(=O)C(=O)NCCN1CCN(c2ccccc2F)CC1`, the RP-LC retention time turned out to be 614 s.

The compound `CCCSCCCNc1nc(-c2nnc(-c3ccc(C)cc3)o2)nc2ccccc12` came in with an RP-LC retention time of 1160 s.

For the compound `O=C(NC1CCCC1)c1cc(N2CCCC2)n2nccc2n1`, the RP-LC retention time came out at 908 s.

In the case of `CCOC(=O)c1noc2ncnc(NCC3CCN(Cc4ccccc4F)CC3)c12`, the RP-LC retention time is 661 s.

`CCC(C)(C)NC(=O)CCNc1c(-c2ccc(F)cc2)nc2cnccn12` displayed an RP-LC retention time of 754 s.

Turning to `Cc1c(Cl)cccc1NC(=O)N1CCN(CCn2c(C(F)(F)F)nc3cccnc32)CC1`, the RP-LC retention time came to 666 s.

Regarding `O=C(CCn1nnc2cc(-c3noc(Cc4ccc(F)cc4)n3)ccc21)N1CCCC1`, the RP-LC retention time was determined as 860 s.

With `Cc1cccc(-c2noc(C3CCCN3S(=O)(=O)c3ccc(C)c(C)c3)n2)c1` (stereo not given), the RP-LC retention time came to 1210 s.

`CSc1ccc(CNC(=O)Cn2c(=O)cc(-c3nc(C4CC4)no3)c3ccccc32)cc1` showed an RP-LC retention time of 962 s.

Consider `Cc1noc(C)c1S(=O)(=O)NCC(c1cccs1)S(=O)(=O)c1ccc(F)cc1` (stereo not given), for which the RP-LC retention time amounted to 847 s.

`CCN(CC)CCNC(=O)C1CCN(c2ccc(-c3cccs3)nn2)CC1` had an RP-LC retention time of 556 s.

Take `O=C(c1ccccn1)N1CCC(n2c(C3CCCC3)nc3cccnc32)C1` (stereo not given): the RP-LC retention time amounted to 620 s.

Compound `O=C(NCCn1c(-c2ccccc2)nc2cccnc21)NCc1ccc(F)cc1` came in with an RP-LC retention time of 684 s.

For the compound `COc1ccc(OC)c(CNC(=O)c2[nH]c(C)c(S(=O)(=O)N3CCCC3)c2C)c1`, the RP-LC retention time was determined as 822 s.

On to `CC(C)(C)c1cc(C(N)=O)n[nH]1`, for which the RP-LC retention time was found to be 602 s.

`O=C(CSc1nc2ccccc2o1)NCCn1nc(-c2ccco2)ccc1=O`: the RP-LC retention time is 674 s.

The compound `O=S(=O)(c1ccc2nc(N3CCN(c4ccccc4F)CC3)ccc2c1)N1CCCC1` displayed an RP-LC retention time of 998 s.

`CN(C)C(=O)c1csc(S(=O)(=O)N2CCC(C(=O)NCc3ccc(Cl)cc3)CC2)c1` had an RP-LC retention time of 787 s.

With `CCN1C(=O)C2(CCN(C(=O)c3c(C)noc3C)CC2)c2ccccc21`, the RP-LC retention time was 785 s.

With `O=C(NCc1ccccc1)C1CC(=O)N(CCc2c[nH]c3ccc(F)cc23)C1` (stereo not given), the RP-LC retention time worked out at 764 s.

Take `O=C(NCc1ccc(N2CCCC2)nc1)c1cccc(Br)c1`: the RP-LC retention time was found to be 646 s.

The compound `CC1Oc2ccc(-c3csc(NS(C)(=O)=O)n3)cc2NC1=O` (stereo not given) came in with an RP-LC retention time of 609 s.

In the case of `CC1CCCN(CCCNC(=O)CCC(=O)N2CCc3c(c(C(=O)N4CCCC4)nn3C)C2)C1` (stereo not given), the RP-LC retention time was 579 s.

In the case of `O=c1c2nc(-c3cccc(Cl)c3)cn2ccn1-c1cccc(F)c1`, the RP-LC retention time is 871 s.

Regarding `OC1(Cc2ccccc2)CCNCC1`, the RP-LC retention time amounted to 612 s.

`CCn1nccc1-c1cccc(-c2noc(-c3cccc(NC(C)=O)c3)n2)c1` returned an RP-LC retention time of 924 s.

For the compound `CCc1nn2c(CNC(=O)c3ccn(CC)n3)c(-c3ccccc3)nc2s1`, the RP-LC retention time was determined as 822 s.

For the compound `O=C(Nc1cccc(C(F)(F)F)c1)Nc1c(-c2ccncc2)nc2ccccn12`, the RP-LC retention time was 655 s.

In turn, `CC(NC(=O)c1ccco1)c1nc2ccccc2n1CC(=O)N1CCOCC1` (stereo not given) registered an RP-LC retention time of 586 s.

`CCc1ccc(NS(=O)(=O)c2cc(-c3[nH]ncc3C(=O)N(C)C)oc2C)cc1` came in with an RP-LC retention time of 704 s.

`Cc1cc(C)c2c(n1)SCC(=O)N2CC(=O)NCCCN(C)Cc1ccccc1`: the RP-LC retention time came out at 587 s.

On to `Cc1noc(-c2cccc(OC3CN(C(=O)NCc4ccccc4)C3)c2)n1`, for which the RP-LC retention time is 830 s.

Take `Cc1ccc(C)c(N2CCN(C(=O)c3cn4c(n3)CCCC4)CC2)c1`: the RP-LC retention time turned out to be 689 s.

With `CCn1ccc2c(cc(C(=O)Nc3ccc(F)cc3Cl)n2C)c1=O`, the RP-LC retention time is 776 s.

`CCN(CC)c1ccc(NC(=O)C2C(=O)NC3(C)CC2c2ccccc2O3)c(C)c1` (stereo not given) had an RP-LC retention time of 640 s.

`CCCOc1nc2ccccc2nc1N1CCCC(C(=O)Nc2ccccc2OC)C1` (stereo not given): the RP-LC retention time was determined as 1320 s.

`CC1=NS(=O)(=O)N(Cc2ccccc2)C=C1C(=O)OCc1ccc(C)cc1` gave an RP-LC retention time of 1170 s.

The compound `O=C(NCCCN1CCOCC1)C1CCc2sc(C(=O)N3CCOCC3)cc2C1` (stereo not given) registered an RP-LC retention time of 568 s.

`COc1ccc(-c2nc(N3CCSCC3)ncc2C(=O)O)cc1` yielded an RP-LC retention time of 854 s.

Compound `Cc1noc(-c2ccc(-n3cnc(C(=O)NCC4CC4)c3)nc2)n1` yielded an RP-LC retention time of 727 s.

On to `Cc1ccccc1CNC(=O)C1CCCN1S(=O)(=O)c1cc2c(cc1C)NC(=O)C(C)O2` (stereo not given), for which the RP-LC retention time is 814 s.

In the case of `CSc1ccc(CNC(=O)C2CCCN(c3cc(=O)n(C)c(=O)n3C)C2)cc1` (stereo not given), the RP-LC retention time worked out at 704 s.

As to `CCn1c(CCNC(=O)c2ccc(C)c(F)c2)nc2cccnc21`, the RP-LC retention time was found to be 676 s.

Turning to `CCC(C)NC(=O)NCCC1CCN(S(=O)(=O)c2ccc(C)cc2)CC1` (stereo not given), the RP-LC retention time came out at 861 s.

In turn, `Cc1ccc(C(O)CN2CCN(c3ccccn3)CC2)c(C)c1` (stereo not given) yielded an RP-LC retention time of 573 s.

In the case of `O=C(CSc1nnc2c3cc(-c4ccc(F)cc4)nn3ccn12)NCc1ccco1`, the RP-LC retention time stood at 787 s.

`CCOC(=O)c1sc(NC(=O)C2CCCCN2S(C)(=O)=O)cc1C` (stereo not given) showed an RP-LC retention time of 807 s.

As for `O=C(c1ccc(CS(=O)c2ccc(Cl)cc2)o1)N1CCN(c2ccccn2)CC1` (stereo not given), the RP-LC retention time worked out at 582 s.

Compound `Cc1cc(-c2csc(S(=O)(=O)NCC3CCN(Cc4ccc(Cl)cc4)CC3)c2)on1` registered an RP-LC retention time of 733 s.

For `Clc1ccc(Cl)c(-c2ccc(CNCc3cccnc3)o2)c1`, the RP-LC retention time worked out at 664 s.

With `COc1ccc(-c2csc(NC(=O)Nc3ccc(Cl)c(Cl)c3)n2)cc1Br`, the RP-LC retention time was determined as 1280 s.

`Cc1ccc(NC(=O)Cn2c(C)nc3onc(C)c3c2=O)cc1F`: the RP-LC retention time turned out to be 735 s.

Take `CCNc1nc(C)cc(N2CCN(S(=O)(=O)c3ccc(C(F)(F)F)cc3)CC2)n1`: the RP-LC retention time came to 754 s.

Regarding `CCOC(=O)C1=C(CN2CCOCC2)NC(=O)NC1c1ccc(OC(C)C)cc1` (stereo not given), the RP-LC retention time was 628 s.

The compound `Cc1nnc(-c2cc3ccccc3n2CC(=O)Nc2ccc(C(F)(F)F)cc2)o1` yielded an RP-LC retention time of 966 s.

As for `O=C(c1ccccc1Br)N1CCc2nc(-c3ccc(Cl)cc3)ncc2C1`, the RP-LC retention time amounted to 1110 s.

For `CC(C)n1nc(CNC(=O)Cc2ccsc2)c2ccccc21`, the RP-LC retention time came out at 850 s.

Turning to `Cn1c(=O)n(CCN2CCOCC2)c(=O)c2c1nc1n2CCCN1c1ccc(Br)cc1`, the RP-LC retention time is 638 s.

`Cc1ccc(N2CC(c3noc(-c4cccc(N(C)C)c4)n3)CC2=O)cc1` (stereo not given) came in with an RP-LC retention time of 1090 s.

The values above are taken from the METLIN SMRT retention time set (Domingo-Almenara et al. 2019).
